Measured values: US11702402B2, “Small molecules that block proteasome-associated ubiquitin receptor RPN13 function and uses thereof” (DANA-FARBER CANCER INSTITUTE, INC., priority 2018, dated 2023)
Entries after “also recorded” stand apart in the source; their conditions may differ.

Tests used:
[1] = target: RPN13 (Homo sapiens, UniProt Q16186); test: RPN13 AlphaScreen (Rpn13 / biotinylated polyUb recognition); assay type: binding; details: RA190 as positive control
Experimental: Assays were performed with minimal modifications from the manufacturer's protocol (PerkinElmer, USA). All reagents were diluted in 50 mM HEPES, 150 mM NaCl, 0.1% w/v BSA, 0.01% w/v Tween20, pH 7.5, and allowed to equilibrate to room temperature prior to addition to plates. After addition of Alpha beads to master solutions, all subsequent steps were performed under low light conditions. A 2× solution of components with final concentrations of RPN13 at 670 nM, Ni-coated Acceptor Bead at 20 μg/ml, and 5 nM biotinylated-poly-Ub K48-linked chains (UCB-230, BostonBiochem, USA) was added in 10 μL to 384-well plates (AlphaPlate-384, PerkinElmer, USA). Plates were spun down at 150×g, and 100 nL of compound in DMSO from stock plates were added by pin transfer using a Janus Workstation (PerkinElmer, USA). The streptavidin-coated donor beads (20 μg/ml final) were added, as with previous the solution, in a 2×, 10 μL volume. Following this addition, plates were sealed with foil to prevent light exposure and evaporation. The plates were spun down again at 150 g. Plates were incubated at room temperature for 1 hour, and then read on an Envision 2104 (PerkinElmer, USA), using the manufacturer's protocol.
Several experiments were performed to confirm the specificity of WL40. […] It was then examined whether the bivalent molecule, WL40, can bind to Rpn13. […]

[2] = test system: LC3A/B; test: Autophagy marker LC3A/B immunoblot; assay type: cell-based, Human; details: ANBL6.BR or MM.1S; versus DMSO or RA190
[3] = test system: HCT116 and HCT116-Rpn13KO cell lines; test: HCT116 and HCT116-Rpn13KO cell viability; assay type: cell-based; details: HCT116 versus HCT116-Rpn13KO; 48 hours; Wst-1
Experimental: FIGS. 8A and 8B show HCT116 and HCT116-Rpn13KO cell lines that were treated with WL40 or WL44 at the indicated concentrations for 48 hours. Wst-1 assay was used to test cell viability.
CRISPR-Cas9 genome editing was performed to generate Rpn13-knockout (Rpn13-KO) HCT116 and MM.1S cell lines. Cells were transfected with Rpn13-CRISPR/Cas9-knockout (KO) plasmid (Santa Cruz Biotechnology, Inc., Santa Cruz, Calif., USA) using Lipofectamine 2000 (Thermo Fisher Scientific, Waltham, Mass., USA) or the cell line Nucleofector Kit V (Amaxa Biosystems, Cologne, Germany), respectively. After 48 h incubation, green fluorescent protein (GFP)-positive cells were sorted. Rpn13 KO was confirmed by both protein expression studies and DNA sequencing.

[4] = test system: p53/p21 apoptotic signaling axis; test: p53/p21 signaling immunoblot; assay type: cell-based, Human; details: ANBL6.BR; WL40 (1 μM) versus RA190 (1 μM)
[5] = target: Recombinant 20S proteasome (Homo sapiens, UniProt P28072+P28074+Q99436); test: Recombinant 20S proteasome activity assay; assay type: biochemical; details: purified recombinant 20S proteasome; 30 minutes
Experimental: MM.1S cells, which were treated with DMSO control, bortezomib, or WL40 at indicated concentration for 3 hours; protein lysates were analyzed for different proteasome activities (CT-L, chymotrypsin-like; T-L, trypsin-like; C-L, caspase-like). FIG. 20B is a bar graph showing percent proteasome activity after normalization with DMSO control (mean±SD; n=3). Recombinant 20S proteasome was incubated with DMSO, bortezomib, or WL40 for 30 minutes, followed by assessment of the above-noted proteasome activities. FIG. 20C MM.1S cells were pretreated with exemplary proteasome inhibitor MG132 (10 μM) for 1 hour, followed by addition of WL40 (400 nM) for 8 hours. […] Total protein lysates were subjected to immunoblots for Rpn13 and α-tubulin. […] FIG. 20E ANBL6.BR cells were treated with WL40 (400 nM) or RA190 (500 nM) for 16 hours; protein lysates were subjected to immunoblot analysis using anti-Rpn13 or anti-β-actin Abs.
To eliminate the potential impact of WL40 on proteasome function, the effect of WL40 on proteasome activities was assessed.

Chain of RPN13 (Q16186 whole entry): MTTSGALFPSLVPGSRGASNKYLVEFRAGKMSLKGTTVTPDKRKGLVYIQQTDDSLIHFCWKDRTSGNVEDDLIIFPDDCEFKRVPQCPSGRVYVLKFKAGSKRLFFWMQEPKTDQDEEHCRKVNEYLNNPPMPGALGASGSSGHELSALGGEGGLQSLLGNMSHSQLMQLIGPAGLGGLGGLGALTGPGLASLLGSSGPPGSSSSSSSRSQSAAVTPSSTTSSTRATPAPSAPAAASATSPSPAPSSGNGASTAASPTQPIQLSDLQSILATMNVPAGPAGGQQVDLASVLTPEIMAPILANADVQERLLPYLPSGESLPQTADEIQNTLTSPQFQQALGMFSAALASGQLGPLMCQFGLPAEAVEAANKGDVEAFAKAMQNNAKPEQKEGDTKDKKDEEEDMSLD

SMILES: O=C1CCC(N2C(=O)c3cccc(NCCOCCOCCOCCC(=O)N[C@@H](Cc4ccccc4)C(=O)N4C/C(=C\c5ccc(Cl)c(Cl)c5)C(=O)/C(=C/c5ccc(Cl)c(Cl)c5)C4)c3C2=O)C(=O)N1 (some centres unmarked) [WL40]
- Rpn13 binding [1]: binds to Rpn13
- LC3A/B level / LC3 activation [2]: significant increase in LC3A/B; also recorded: more pronounced LC3 activation
- RPN13 dependence of cytotoxicity [3]: RPN13-dependent
- induction of p53/p21 signaling [4]: earlier induction of this pathway
- 20S proteasomal activities (chymotrypsin-like, trypsin-like, caspase-like) [5]: does not inhibit 20S proteasomal activities
